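Following 48 hours of exposure in 96-well plates, responses at five concentrations were used to interpolate endpoints linearly. The concentration for 50% growth inhibition is given as GI50.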 Activity calls are given as the source filed them. No stated cut-off is given here; in the data, active = GI50 up to about 1.1 µM and inactive = higher.
Key:
Test in all cases: growth of human tumour cells (NCI), 48 h
786-0 = system: 786-0
A498 = system: A498
A549 = system: A549
ACHN = system: ACHN
COLO 205 = system: COLO 205
HCT-15 = system: HCT-15
HOP-92 = system: HOP-92
KM12 = system: KM12
MOLT-4 = system: MOLT-4
Malme-3M = system: Malme-3M
OVCAR-8 = system: OVCAR-8
RXF 393 = system: RXF 393
SK-MEL-28 = system: SK-MEL-28
SN12C = system: SN12C
CAKI-1 = system: CAKI-1
SK-MEL-2 = system: SK-MEL-2

SMILES	GI50 (786-0)	GI50 (A498)	GI50 (A549)	GI50 (ACHN)	GI50 (COLO 205)	GI50 (HCT-15)	GI50 (HOP-92)	GI50 (KM12)	GI50 (MOLT-4)	GI50 (Malme-3M)	GI50 (OVCAR-8)	GI50 (RXF 393)	GI50 (SK-MEL-28)	GI50 (SN12C)	GI50 (CAKI-1)	GI50 (SK-MEL-2)
C[N+]1(C)C/C(=C\c2ccccc2)C(=O)/C(=C/c2ccccc2)C1	> 100 µM (inactive)	> 100 µM (inactive)	> 100 µM (inactive)	> 100 µM (inactive)	> 100 µM (inactive)	> 100 µM	> 100 µM (inactive)	> 100 µM (inactive)	32.8 µM (inactive)	> 100 µM (inactive)	> 100 µM (inactive)	> 100 µM (inactive)	> 100 µM (inactive)	18.5 µM (inactive)		
O=C1c2ccccc2C2(Br)C(=O)c3ccccc3C12 (stereo not given)	> 100 µM (inactive)		> 100 µM (inactive)	> 100 µM (inactive)	> 100 µM (inactive)	> 100 µM	> 100 µM (inactive)	> 100 µM (inactive)	> 100 µM (inactive)	> 100 µM (inactive)	> 100 µM (inactive)	> 100 µM (inactive)	> 100 µM (inactive)	> 100 µM (inactive)	> 100 µM (inactive)	> 100 µM (inactive)
c1ccc(C2CC(c3ccc4ccccc4c3)=Nc3ccccc3S2)cc1 (stereo not given)	16.6 µM (inactive)	17.3 µM (inactive)	18.3 µM (inactive)	16.7 µM (inactive)				17.7 µM (inactive)	30.4 µM (inactive)	19.4 µM (inactive)	16.3 µM (inactive)	19.1 µM (inactive)	18.3 µM (inactive)	16.7 µM (inactive)	> 10 µM (inactive)	18.1 µM (inactive)
CCOC(=O)C1=C(C)N(Cc2ccccc2)C(C)=C(C(=O)OCC)C1c1ccccc1O	44.6 µM (inactive)	33.7 µM (inactive)	29.2 µM (inactive)	28.1 µM (inactive)	13 µM (inactive)	30.1 µM	13.7 µM (inactive)	23.7 µM (inactive)	11.3 µM (inactive)	26 µM (inactive)	31.7 µM (inactive)	18.7 µM (inactive)	19.2 µM (inactive)	28.4 µM (inactive)	27.2 µM (inactive)	20 µM (inactive)
Cc1nn(C(=O)CC(=O)Nc2ccccc2Cl)c(C)c1/N=N/c1ccccc1Cl	> 100 µM (inactive)	> 100 µM (inactive)	> 100 µM (inactive)	> 100 µM (inactive)	> 100 µM (inactive)	> 100 µM	> 100 µM (inactive)	> 100 µM (inactive)	> 100 µM (inactive)	> 100 µM (inactive)	> 100 µM (inactive)	> 100 µM (inactive)	> 100 µM (inactive)	> 100 µM (inactive)	> 100 µM (inactive)	> 100 µM (inactive)
CCCS(=O)(=O)/C(=C(\c1ccc(Br)cc1)S(=O)(=O)CCC)c1ccc(Br)cc1	> 10 µM (inactive)	> 10 µM (inactive)	> 10 µM (inactive)	> 10 µM (inactive)	> 10 µM (inactive)	> 10 µM	> 10 µM (inactive)	> 10 µM (inactive)	> 10 µM (inactive)	> 10 µM (inactive)	> 10 µM (inactive)	> 10 µM (inactive)	> 10 µM (inactive)	> 10 µM (inactive)	> 10 µM (inactive)	> 10 µM (inactive)
CC(=O)O/C(C)=C\C(=O)O/N=C(\N)c1ccc(C)cc1	52 µM (inactive)	62.7 µM (inactive)	40.4 µM (inactive)	33 µM (inactive)	27.9 µM (inactive)		33.7 µM (inactive)	41.8 µM (inactive)	23.1 µM (inactive)	25.4 µM (inactive)	36.6 µM (inactive)	27.4 µM (inactive)	19.6 µM (inactive)	22 µM (inactive)	> 100 µM (inactive)	28.6 µM (inactive)
CN(CCN(C)C(=O)CCn1ccc(=O)[nH]c1=O)C(=O)CCn1ccc(=O)[nH]c1=O	> 100 µM (inactive)		> 100 µM (inactive)	> 100 µM (inactive)	> 100 µM (inactive)	> 100 µM		> 100 µM (inactive)	> 100 µM (inactive)	> 100 µM (inactive)	> 100 µM (inactive)	> 100 µM (inactive)	> 100 µM (inactive)	> 100 µM (inactive)		> 100 µM (inactive)
O=C1CC(C[C@H](O)C2CCCCC2O)CC(=O)N1Cc1ccccc1 (stereo not given in full)	> 100 µM (inactive)	> 100 µM (inactive)	> 100 µM (inactive)	> 100 µM (inactive)	> 100 µM (inactive)			> 100 µM (inactive)	> 100 µM (inactive)	> 100 µM (inactive)	> 100 µM (inactive)	> 100 µM (inactive)	> 100 µM (inactive)	> 100 µM (inactive)	> 100 µM (inactive)	> 100 µM (inactive)
CCCC(=O)c1ccc(=O)n(C)c1	> 100 µM (inactive)		> 100 µM (inactive)	> 100 µM (inactive)	> 100 µM (inactive)	> 100 µM	> 100 µM (inactive)	> 100 µM (inactive)	> 100 µM (inactive)	> 100 µM (inactive)	> 100 µM (inactive)	> 100 µM (inactive)	> 100 µM (inactive)	> 100 µM (inactive)	> 100 µM (inactive)	> 100 µM (inactive)
O=C(O)c1oc2ccc([N+](=O)[O-])c3c2c1CCC3	98.9 µM (inactive)		> 100 µM (inactive)	> 100 µM (inactive)	> 100 µM (inactive)		27.7 µM (inactive)	> 100 µM (inactive)		54.1 µM (inactive)	> 100 µM (inactive)	> 100 µM (inactive)	> 100 µM (inactive)	> 100 µM (inactive)	> 100 µM (inactive)	> 100 µM (inactive)
O=C(CC(=O)N1N=C(N2c3ccccc3Sc3ccccc32)CC1c1ccccc1)Nc1ccc(Cl)cc1 (stereo not given)	> 100 µM (inactive)	> 100 µM (inactive)	> 100 µM (inactive)	> 100 µM (inactive)	> 100 µM (inactive)	> 100 µM	> 100 µM (inactive)	> 100 µM (inactive)		> 100 µM (inactive)	> 100 µM (inactive)	> 100 µM (inactive)	> 100 µM (inactive)	> 100 µM (inactive)	> 100 µM (inactive)	
c1ccc2c(c1)oc1ccc3nsnc3c12	> 100 µM (inactive)	63.4 µM (inactive)	> 100 µM (inactive)	> 100 µM (inactive)	> 100 µM (inactive)	> 100 µM	45.7 µM (inactive)	56 µM (inactive)	> 100 µM (inactive)	> 100 µM (inactive)		71 µM (inactive)	> 100 µM (inactive)		> 100 µM (inactive)	> 100 µM (inactive)
COc1cc(C(=O)C/C(CCC(=O)Nc2ccccc2[N+](=O)[O-])=N\NC(=O)CC#N)ccc1O	> 100 µM (inactive)	40.7 µM (inactive)	> 100 µM (inactive)	> 100 µM (inactive)	> 100 µM (inactive)	> 100 µM		> 100 µM (inactive)	> 100 µM (inactive)	> 100 µM (inactive)	> 100 µM (inactive)	> 100 µM (inactive)	> 100 µM (inactive)	> 100 µM (inactive)	> 100 µM (inactive)	> 100 µM (inactive)
COC(=O)C1(C(C)C)CCc2c(OC)ccc(OC)c2C1=O (stereo not given)	> 100 µM (inactive)	> 100 µM (inactive)	> 100 µM (inactive)	> 100 µM (inactive)	> 100 µM (inactive)	> 100 µM		> 100 µM (inactive)	74.3 µM (inactive)	> 100 µM (inactive)	> 100 µM (inactive)		> 100 µM (inactive)	> 100 µM (inactive)	> 100 µM (inactive)	> 100 µM (inactive)
O=C1OC2CCCC[C@@H]2C2C[C@]34CCCCC3[C@@H](C(=O)O4)C12 (stereo not given in full)	> 100 µM (inactive)	> 100 µM (inactive)	> 100 µM (inactive)	> 100 µM (inactive)	> 100 µM (inactive)	> 100 µM	> 100 µM (inactive)	> 100 µM (inactive)	> 100 µM (inactive)	> 100 µM (inactive)	> 100 µM (inactive)	> 100 µM (inactive)	> 100 µM (inactive)	> 100 µM (inactive)		> 100 µM (inactive)
O=C(c1ccc(Cl)cc1)N(C(=S)N1CCN(c2ccccc2)CC1)c1ccccc1	> 100 µM (inactive)		> 100 µM (inactive)	> 100 µM (inactive)	> 100 µM (inactive)	> 100 µM	> 100 µM (inactive)	> 100 µM (inactive)	> 100 µM (inactive)	> 100 µM (inactive)	> 100 µM (inactive)	> 100 µM (inactive)	> 100 µM (inactive)	> 100 µM (inactive)	> 100 µM (inactive)	> 100 µM (inactive)
COc1cc(Br)c(/C=N\c2cccc3cc(OC)c(OC)cc23)cc1OC	22.6 µM (inactive)		> 100 µM (inactive)	51.5 µM (inactive)	97.7 µM (inactive)	31.4 µM	28.2 µM (inactive)	28.8 µM (inactive)	26.8 µM (inactive)	54.1 µM (inactive)	34.7 µM (inactive)	20.2 µM (inactive)	88.3 µM (inactive)	40.6 µM (inactive)	41.5 µM (inactive)	
O=C(Nc1nc2ncn(CC(COc3ccccc3)OC(=O)c3ccccc3)c2c(=O)[nH]1)c1ccccc1 (stereo not given)	> 100 µM (inactive)	> 100 µM (inactive)	> 100 µM (inactive)	> 100 µM (inactive)		> 100 µM		> 100 µM (inactive)	> 100 µM (inactive)	> 100 µM (inactive)	> 100 µM (inactive)	> 100 µM (inactive)	> 100 µM (inactive)	> 100 µM (inactive)	> 100 µM (inactive)	> 100 µM (inactive)

Reference: ChEMBL document CHEMBL1201862, “PubChem BioAssay data set” (2004)
